Laboratory results from patent publication US8912184B1, “Therapeutic and diagnostic methods” (Alzheimer's Institute of America, Inc., priority 2010, dated 2014).
Read-outs that look alike come from different tables or passages of the source.

Test system: HCT116 cells
Assay: Nicotinic Acid Rescue Cytotoxicity Assay, first method: cytotoxicity to HCT116 cells in presence and absence of 10 μM nicotinic acid
Assay type: cell-based
Settings: Homo sapiens, HCT-116, 72 h
Method: Additionally, Nicotinic Acid (NA) rescue of cytotoxicity of Nampt inhibitors was assessed by two distinct methods. In the first method, Nampt1 inhibitor cytotoxicity was evaluated in the presence and absence of exogenous nicotinic acid (NA) at a fixed concentration. […] Twenty four hours after cells were plated, the media was removed and replaced with media containing 10 μM nicotinic acid. Compounds were then immediately added. Cell viability was then assessed at 72 h.
Using the first of the two assays described above, the 90 compounds shown in Table 5, below, were tested for cytotoxicity towards Naprt1-proficient HCT116 cells, and for the ability of NA to block the observed cytotoxicity (or “rescue” the cells from the cytotoxic activity of the tested compound). The compounds listed are referred to by a unique rescue analysis example number (i.e., R1, R2 . . . R90) that is used as a reference number in Table 4, in which the results of the cytotoxicity and rescue assays are presented.

[1] = absence of nicotinic acid, read-out: HCT116 72 h cytotoxicity
[2] = presence of 10 μM nicotinic acid, read-out: HCT116 72 h cytotoxicity with 10 μM Nicotinic Acid

Compound	IC50 [1] [µM]	IC50 [2] [µM]
C#CCN(Cc1cc2c(=O)n(C)c(CN3CCN(C)CC3)nc2cc1Cl)c1ccc(C(=O)NCc2cccnc2)cc1 [Example R1]	0.0007	> 10
C#CCN(Cc1cc2c(=O)n(C)c(CN3CCN(CCN)CC3)nc2cc1Cl)c1ccc(C(=O)NCc2cccnc2)cc1 [Example R2, 4-{[(2-{[4-(2-Aminoethyl)piperazin-1-yl]methyl}-7-chloro-3-methyl-4-oxo-3,4-dihydroquinazolin-6-yl)methyl](prop-2-yn-1-yl)amino}-N-(pyridin-3-ylmethyl)benzamide]	0.0183	> 50
O=C(/C=C/c1cccnc1)NCCCCC1CCN(C(=O)c2ccccc2)CC1 [Example R3, (2E)-N-[4-(1-Benzoylpiperidin-4-yl)butyl]-3-(pyridin-3-yl)prop-2-enamide]	0.0014	> 10
C#CCN(Cc1cc2c(=O)n(C)c(CN3CCN(C)CC3)nc2cc1Cl)c1ccc(C(=O)NCc2ccccn2)cc1 [Example R4, 4-[({7-Chloro-3-methyl-2-[(4-methylpiperazin-1-yl)methyl]-4-oxo-3,4-dihydroquinazolin-6-yl}methyl)(prop-2-yn-1-yl)amino]-N-(pyridin-2-ylmethyl)benzamide]	0.276	> 10
N#C/N=C(/NCCCCCCOc1ccc(Cl)cc1)Nc1ccncc1 [Example R5, 1-[6-(4-Chlorophenoxy)hexyl]-2-cyano-3-pyridin-4-ylguanidine]	0.0016	> 10
O=C(NCc1cccnc1)c1ccc(NC(=O)c2ccccc2)cc1 [Example R6, 4-[(Phenylcarbonyl)amino]-N-(pyridin-3-ylmethyl)benzamide]	1.69	> 10
O=C(NCc1cccnc1)c1ccc(NNc2ccc(C(=O)NCc3cccnc3)cc2)cc1 [Example R7, 4,4′-Hydrazine-1,2-diylbis[N-(pyridin-3-ylmethyl)benzamide]]	0.0088	22
O=C(NCc1cccnc1)c1ccc(NCc2ccccc2OC(F)(F)F)cc1 [Example R8, N-(Pyridin-3-ylmethyl)-4-{[2-(trifluoromethoxy)benzyl]amino}benzamide]	3.13	> 10
C#CCN(Cc1ccccc1-c1ccccc1)c1ccc(C(=O)NCc2cccnc2)cc1 [Example R9, 4-[(Biphenyl-2-ylmethyl)(prop-2-yn-1-yl)amino]-N-(pyridin-3-ylmethyl)benzamide]	0.0415	12
C#CCN(Cc1ccccc1C(F)(F)F)c1ccc(C(=O)NCc2cccnc2)cc1 [Example R10, 4-{Prop-2-yn-1-yl[2-(trifluoromethyl)benzyl]amino}-N-(pyridin-3-ylmethyl)benzamide]	1.11	> 5
O=C(Nc1ccc(C(=O)NCc2cccnc2)cc1)Nc1ccccc1-c1ccccc1 [Example R11, 4-[(Biphenyl-2-ylcarbamoyl)amino]-N-(pyridin-3-ylmethyl)benzamide]	0.424	> 50
O=C(Nc1ccc(C(=O)NCc2cccnc2)cc1)Nc1ccc(Cl)c(Cl)c1 [Example R12, 4-{[(3,4-Dichlorophenyl)carbamoyl]amino}-N-(pyridin-3-ylmethyl)benzamide]	9.64	24.8
O=C(NCc1cccnc1)c1ccc(NC(=S)Nc2ccccc2Br)cc1 [Example R13, 4-{[(2-Bromophenyl)carbamothioyl]amino}-N-(pyridin-3-ylmethyl)benzamide]	1.61	> 50
O=C(Nc1ccc(C(=O)NCc2cccnc2)cc1)Nc1cc(C(F)(F)F)cc(C(F)(F)F)c1 [Example R14, 4-({[3,5-Bis(trifluoromethyl)phenyl]carbamoyl}amino)-N-(pyridin-3-ylmethyl)benzamide]	7.39	21.5
O=C(NCc1cccnc1)c1ccc(NC(=S)Nc2cccc(OCc3ccccc3)c2)cc1 [Example R15, 4-({[3-(Benzyloxy)phenyl]carbamothioyl}amino)-N-(pyridin-3-ylmethyl)benzamide]	4.69	> 50
O=C(CN1CCc2ccccc21)Nc1ccc(C(=O)NCc2cccnc2)cc1 [Example R16, 4-[(2,3-Dihydro-1H-indol-1-ylacetyl)amino]-N-(pyridin-3-ylmethyl)benzamide]	3.29	> 50
O=C(CN1CCCc2ccccc21)Nc1ccc(C(=O)NCc2cccnc2)cc1 [Example R17, 4-[(3,4-Dihydroquinolin-1(2H)-ylacetyl)amino]-N-(pyridin-3-ylmethyl)benzamide]	2.05	> 50
O=C(CNCc1ccccc1Br)Nc1ccc(C(=O)NCc2cccnc2)cc1 [Example R18, 4-{[N-(2-Bromobenzyl)glycyl]amino}-N-(pyridin-3-ylmethyl)benzamide]	6.81	> 50
O=C(CNc1ccccc1Oc1ccccc1)Nc1ccc(C(=O)NCc2cccnc2)cc1 [Example R19, 4-{[N-(2-Phenoxyphenyl)glycyl]amino}-N-(pyridin-3-ylmethyl)benzamide]	0.586	> 50

Compound	IC50 [1] [µM]	IC50 [2] [µM]
Cc1ccccc1NCC(=O)Nc1ccc(C(=O)NCc2cccnc2)cc1 [Example R20, 4-{[N-(2-Methylphenyl)glycyl]amino}-N-(pyridin-3-ylmethyl)benzamide]	0.106	> 50
CCOc1ccccc1NCC(=O)Nc1ccc(C(=O)NCc2cccnc2)cc1 [Example R21, 4-{[N-(2-Ethoxyphenyl)glycyl]amino}-N-(pyridin-3-ylmethyl)benzamide]	0.435	> 50
CC(C)c1ccccc1NCC(=O)Nc1ccc(C(=O)NCc2cccnc2)cc1 [Example R22]	0.302	> 50
O=C(NCc1cccnc1)c1ccc(OCc2ccccc2-c2ccccc2)cc1 [Example R23, 4-(Biphenyl-2-ylmethoxy)-N-(pyridin-3-ylmethyl)benzamide]	0.539	> 50
Cc1c(COc2ccc(C(=O)NCc3cccnc3)cc2)cccc1C(F)(F)F [Example R24, 4-{[2-Methyl-3-(trifluoromethyl)benzyl]oxy}-N-(pyridin-3-ylmethyl)benzamide]	12	45
CC(C)c1cccc(-c2ccccc2CNc2ccc(C(=O)NCc3cccnc3)cc2)c1 [Example R25, 4-({[3′-(Propan-2-yl)biphenyl-2-yl]methyl}amino)-N-(pyridin-3-ylmethyl)benzamide]	8.33	37
CC(=O)Nc1cccc(-c2ccccc2CNc2ccc(C(=O)NCc3cccnc3)cc2)c1 [Example R26, 4-({[3′-(Acetylamino)biphenyl-2-yl]methyl}amino)-N-(pyridin-3-ylmethyl)benzamide]	0.0269	25
O=C(NCc1cccnc1)c1ccc(NCc2ccccc2-c2ccccc2)cc1 [Example R27, 4-[(Biphenyl-2-ylmethyl)amino]-N-(pyridin-3-ylmethyl)benzamide]	0.0871	37
Cc1ccccc1-c1ccccc1CNc1ccc(C(=O)NCc2cccnc2)cc1 [Example R28, 4-{[(2′-Methylbiphenyl-2-yl)methyl]amino}-N-(pyridin-3-ylmethyl)benzamide]	0.335	25
O=C(NCc1cccnc1)c1ccc(NCc2ccccc2-c2cccc(C(F)(F)F)c2)cc1 [Example R29, N-(Pyridin-3-ylmethyl)-4-({[3′-(trifluoromethyl)biphenyl-2-yl]methyl}amino)benzamide]	10.3	25
O=C(NCc1cccnc1)c1ccc(NCc2ccccc2-c2cccc(Cl)c2)cc1 [Example R30, 4-{[(3′-Chlorobiphenyl-2-yl)methyl]amino}-N-(pyridin-3-ylmethyl)benzamide]	1.35	29
O=C(NCc1cccnc1)Nc1ccc(NCc2ccccc2Cl)cc1 [Example R31, 1-{4-[(2-Chlorobenzyl)amino]phenyl}-3-(pyridin-3-ylmethyl)urea]	1.27	> 50
O=C(NCc1cccnc1)Nc1ccc(NS(=O)(=O)c2ccccc2)cc1 [Example R32, N-(4-{[(Pyridin-3-ylmethyl)carbamoyl]amino}phenyl)benzene-sulfonamide]	0.194	> 50
O=C(NCc1cccnc1)Nc1ccc(NS(=O)(=O)c2ccccc2Br)cc1 [Example R33, 2-Bromo-N-(4-{[(pyridin-3-ylmethyl)carbamoyl]amino}phenyl)benzene-sulfonamide]	0.0046	> 50
O=C(NCCc1cccnc1)c1ccc(NCc2ccccc2Br)cc1 [Example R34, 4-[(2-Bromobenzyl)amino]-N-[2-(pyridin-3-yl)ethyl]benzamide]	1.16	> 50
N#Cc1ccc(NC(=S)NCCCCCCOc2ccc(Cl)cc2)cc1 [Example R35, 1-[6-(4-Chlorophenoxy)hexyl]-3-(4-cyanophenyl)thiourea]	1.53	2
N#C/N=C(\NCCCCCCOc1ccc(Cl)cc1)Nc1ccc(Br)nc1 [Example R36, 1-(6-Bromopyridin-3-yl)-2-[6-(4-chlorophenoxy)hexyl]-3-cyanoguanidine]	6	> 10
N#C/N=C(\NCCCCCCOc1ccc(Cl)cc1)Nc1ccnc(Cl)c1 [Example R37, 1-[6-(4-Chlorophenoxy)hexyl]-2-(2-chloropyridin-4-yl)-3-cyanoguanidine]	0.169	5
Cc1cnccc1N/C(=N/C#N)NCCCCCCOc1ccc(Cl)cc1 [Example R38, 1-[6-(4-Chlorophenoxy)hexyl]-2-cyano-3-(3-methylpyridin-4-yl)guanidine]	0.0014	> 10
